Results on 2 molecules are retold here after paper PMC11097369 (ACS Omega, 2024).

What is called IC90 is the point of the concentration-response curve where the effect stands at 90%. A high value points to weaker potency.

The nature of one data set: CFU-GM assay. Particulars: human, human bone marrow mononuclear cells. The data set is classed as cell-based.
The next data set deals with R/R-PTCL. Particulars: cited from earlier work.
Another data set deals with SCLC. The conditions noted are these: second-line treatment, patients with SCLC; cited from earlier work.

`COc1cc(Nc2ncc3c(n2)-c2ccc(Cl)cc2C(c2c(F)cccc2OC)=NC3)ccc1C(=O)O` [Alisertib] came in with an IC90 in “CFU-GM assay” of 252 nM. Besides, in the data set on R/R-PTCL, the “progression-free survival compared to investigator-selected single-agent comparators” value was “failed to improve the progression-free survival”.

`COc1ccc2[nH]c3c(c2c1)CCN[C@]31CS[C@@H]2c3c(OC(C)=O)c(C)c4c(c3[C@H](COC1=O)N1[C@@H]2[C@H]2c3c(cc(C)c(OC)c3O)C[C@@H]([C@@H]1O)N2C)OCO4` [lurbinectedin]: the overall response rate with SCLC was 35.2%.
